Data set [1] can be described thus: Concentration required to reduce fluorescence in ethidium bromide displacement assay using EB-DNA complex.
Data set [2] is described as follows: In vitro therapeutic index of compound was measured inV79 cells. It counts as cell-based, Cricetulus griseus. The settings on record: chinese hamster, V79 cells; read-out: T.I.
Data set [3] in a line: Ratio (HS) of CT50 values in aerobic condition to hypoxic condition (in N2 presence) given as CT50(A)/CT50(H). It is filed as functional.
In data set [4] the test system is V79. The experiment in a line: Cytotoxicity of compound was measured against suspended V79 cells under hypoxic conditions in clonogenic assay. It counts as functional, Cricetulus griseus.
A short description of data set [5]: Partition coefficient in octanol/water. It counts as physicochemical.
The test system of data set [6] is V79. The experiment in a line: Cytotoxicity of compound was measured against suspended V79 cells under aerobic conditions in clonogenic assay. It counts as functional, Cricetulus griseus.

Structures are written as SMILES.

In turn, `Cl.O=[N+]([O-])c1nccn1CCCNc1c2c(nc3ccccc13)CCSC2` came in with a C50 in data set [1] of 58 µM. Also, the selectivity ratio in data set [2] is 15. In addition, the Ratio in data set [3] turned out to be 9. The CT50 with V79 [4] was 68 µM; with V79 [6] it was 580 µM. Further, the PC in data set [5] was 0.4.

With `Cl.O=[N+]([O-])c1nccn1CCCNc1c2ccccc2nc2ccccc12`, the C50 in data set [1] amounted to 9 µM. The selectivity ratio in data set [2] stood at 11. Besides, the Ratio in data set [3] was determined as 5.5. Besides, the CT50 in the data set on V79 [4] is 15 µM; with V79 [6], 84 µM. The compound also gave a PC in data set [5] of 0.07.

With `Cl.O=[N+]([O-])c1nccn1CCCNc1c2c(nc3ccccc13)CCCC2`, the C50 in data set [1] came out at 58 µM. Besides, the selectivity ratio in data set [2] stood at 20. In addition, the Ratio in data set [3] amounted to 11. Besides, the CT50 was 33 µM with V79 [4] and 360 µM with V79 [6]. The compound also came in with a PC in data set [5] of 0.14.

`CN1CCc2nc3ccccc3c(NCCCn3ccnc3[N+](=O)[O-])c2C1.Cl`: in data set [1], the C50 stood at 45 µM. The selectivity ratio in data set [2] turned out to be 7. For the same compound, the Ratio in data set [3] was 2.2. This compound also returned a PC in data set [5] of 0.41. The compound further yielded a CT50 with V79 [6] of 426 µM.

Source of the values: ChEMBL document CHEMBL1148430, “Synthesis of novel 2-nitroimidazole-tethered tricyclic quinolines, bearing a second heteroatom, and their in vitro evaluation as hypoxia-selective cytotoxins and radiosensitizers” (Bioorg Med Chem Lett, 2004).
